Assay results reported in article PMC7602980 (Biomolecules, 2020).
Values joined by “and” are separate entries in the source; they are usually repeats but may differ in a detail not shown here. Equal entries are not always repeated. Blank lines part the entries; values can stand above or below the molecule they belong to.

How the values were obtained:
[1] = test system: HeLa cells; test: Scrape loading dye transfer, stably transfected HeLa cells; assay type: cell-based; settings: cell layers past scrape; 100% confluent HeLa
From the text: (§1) Briefly, 80% confluent parental HeLa cells were transfected with Cx43 WT or ODDD mutations containing pD2529 (puromycin resistant) plasmid using Lipofectamine 2000 (Invitrogen, # 11668019) at a 1:1 (reagent:plasmid) ratio in OptiMem (Life Technologies, #31985070, Carlsbad, CA, USA) under antibiotic free conditions. After re-plating and once colonies were formed, Western blot and immunofluorescence were used to screen the clones (α-Cx43, Sigma #6219, 1:10,000, MilliporeSigma, St. Louis, MO, USA).
Cell communication was evaluated as previously described. Briefly, stably transfected HeLa cells described above were grown to 100% confluency. Media was replaced with pre-warmed dye transfer solution (0.25% Lucifer yellow CH (Life Technologies # L453) and 0.1% Texas Red 1 × 10^4 (Life Tech # D1863) in 1× PBS at 37 °C) and cells were immediately scrape-loaded with a fine edged micro-scalpel by three longitudinal scratches. After incubating at 37 °C for 4 min, cells were rinsed with 1× PBS and further incubated in antibiotic free media for 6 min. Dye spread was then stopped by washing the cells with 1× PBS containing 1 mM CaCl2 and 1 mM MgCl2. Cells were finally fixed, DAPI stained, mounted, and imaged.

[2] = test system: HeLa cells; test: In situ Triton X-100 extraction and immunofluorescence, stably transfected HeLa cells; assay type: cell-based; settings: 1% Triton X-100 in situ extraction
From the text: as §1
After reaching 100% confluency, cells seeded on glass coverslips were fixed in 4% paraformaldehyde (1× PBS, pH 7.4) and then blocked in 5% goat serum (1× TBS, 0.4% Triton X-100). Coverslips were then incubated with the appropriate primary antibody (α-Cx43, Sigma #6219, 1:200) diluted in blocking buffer overnight at 4 °C. Fluorescent secondary antibody (α-Rb Alexa Fluor 488, Cell Signaling #4412, 1:300) was then applied, followed by DAPI (100 ng/mL in 1× TBS). Coverslips were mounted on a drop of SlowFade anti-fade (Life Technologies, Carlsbad, CA, USA # S36972), sealed with clear nail polish, and imaged.
The in situ detergent extraction was previously described. […]

[3] = test system: Cx43CT236-382; test: NMR titration (15N-HSQC) of 15N-Cx43CT236-382 with CaM; assay type: binding, rat; settings: Ca^+2 not present, 10 mM EGTA
Method: (§4) All polypeptides were equilibrated in 1x phosphate-buffered saline (1x PBS) at pH 5.8 or KCl 100 mM, CaCl2 5 mM at pH 6.5 using NAP-5 columns (GE Healthcare, #17-0853-01, Chicago, MI, USA) by dialysis in Slide-A-Lyzer G2 Dialysis Cassettes, 2K MWCO (Thermo Scientific, #87717, Waltham, MA, USA).
(§5) NMR data were acquired at 7 °C or 25 °C using a 600 MHz Varian INOVA (Agilent Technologies, Santa Clara, CA, USA) or a 600 MHz Bruker Avance-III HD spectrometer (Bruker, Billerica, MA, USA) outfitted with a cryoprobe at the NMR Facility of the University of Nebraska Medical Center. […] NMR spectra were processed using NMRPipe (IBBR, Rockville, MD, USA) [46] and analyzed using NMRView (https://nmrfx.org) [47].
(§6) Data were acquired with 1024 complex points in the direct dimension and 128 complex points in the indirect dimension. Chemical shift variations were calculated according to the formula Δσ = √((ΔδHN)^2 + (ΔδN/5)^2) and plotted as a function of ligand concentration. Dissociation constants (KD) were calculated by nonlinear fitting of the titration curves using GraphPad Prism 7.0 (GraphPad Software, La Jolla, CA, USA) and averaging at least six curves.

[4] = test system: Src; test: In vitro kinase assay, Src phosphorylation of GST-Cx43CT236-382; assay type: biochemical; settings: CaM ~90% saturation of Cx43CT; 4 h RT; Western blot Cx43 pY265; three independent experiments
Method: (§2) After incubation of 4 h at RT for Src, 6 h at 30 °C for ERK1, and 6 h at RT for ERK2, phosphorylation levels of the Cx43CT were detected by Western blot using Cx43 specific anti-phospho antibodies. Three independent experiments were performed and phosphorylation levels were quantified using the iBright Analysis Software and statistical analysis were performed in GraphPad Prism 8.0 using a Student’s t-test. p-values < 0.05 were considered statistically significant.

[5] = test system: ERK2; test: In vitro kinase assay, ERK2 phosphorylation of GST-Cx43CT236-382; assay type: biochemical; settings: CaM ~90% saturation of Cx43CT; 6 h RT; Western blot pS279/S282; three independent experiments
Method: as §2

[6] = test system: ERK1; test: In vitro kinase assay, ERK1 phosphorylation of GST-Cx43CT236-382; assay type: biochemical; settings: CaM ~90% saturation of Cx43CT; 6 h 30 °C; Western blot pS279/S282; three independent experiments; Student's t-test
Method: as §2

[7] = Circular dichroism (far UV), secondary structure; assay type: physicochemical; settings: for CD structure with TFE: 1× PBS pH 5.8, up to 25% TFE, result in words
Method: CD experiments were performed on a JASCO J-815 CD spectrometer at 7 °C in the far UV (260–190 nm) with a 0.1 mm path length quartz cell, using a bandwidth of 1 nm, an integration time of 1 s, and a scan rate of 50 nm/min. Each spectrum is the average of 5 scans. All spectra were corrected by subtracting the solvent spectrum acquired under identical conditions. The protein concentration for each sample was 200–500 μM in 1× PBS at pH 5.8. For CD data collection in presence of TFE, 10× PBS was used to keep the final sample at a constant buffer concentration corresponding to 1x PBS. All CD data were processed using the Spectra Analysis software of Jasco Manager Version 2 (Jasco, Easton, PA, USA).

[8] = molecular target: T1, CaM (Rattus norvegicus, UniProt P0DP29); test: NMR titration (15N-HSQC) of 15N-CaM with Cx43CL136-158 peptides; assay type: binding; settings: result in words
T1 construct: made in house; host or cells: pAED4 vector
Method: as §4, §5, §6

[9] = test system: Cx43; test: Ionomycin treatment and Triton X-100 solubility assay, HeLa^Cx43 cells, Western blot; assay type: cell-based; settings: 100 nM PMA, 1 μM ionomycin, 30 min; insoluble fraction
From the text: as §1
After reaching 100% confluency, HeLa^Cx43 cells seeded on 10-cm dishes were incubated in presence of 1 μM ionomycin (Sigma #I0634) for 2 min for equilibration and then either treated with 1 μM ionomycin only as control, or 1 μM ionomycin plus 20 mM Ca^2+, 100 nM PMA (Sigma, # P1585), or 20 mM Ca^2+/100 nM PMA and incubated for 30 min.
The Triton X-100 solubility assay was modified from a method described previously. […] Protein lysate content was quantified by the BCA assay and normalized. […] After analysis of the insoluble fraction by Western blot, quantification from three independent replicates was measured using the iBright Analysis Software (version 3.1.3, Thermo Scientific) and statistical analysis was performed in GraphPad Prism 8.0 (San Diego, CA, USA) using the Ordinary one way Anova calculation. p-values < 0.05 were considered statistically significant.

[10] = pH 5.8; ref [14]; cited from earlier work
From the text: (§3) The CT plays a role in the trafficking, localization, and turnover of gap junction channels via numerous post-translational modifications and protein–protein interactions. The CT is also important for regulating junctional conductance and voltage sensitivity. […] Conversely, only a few protein partners have been identified to directly bind the CL. For example, in the ...

[11] = test system: Cx43 gap junction channels; settings: peptide in patch pipette; ref [15]; cited from earlier work
From the text: as §3

[12] = test system: Cx43CT domain; settings: ref [14]; cited from earlier work
From the text: as §3

Molecule: Cx43 WT: Cx43 wild type stably expressed in HeLa cells
Lucifer Yellow dye transfer [1]: greater than a fifth-order dye transfer
Triton X-100 solubility / localization [2]: only a small amount of Cx43 washed away in the presence of Triton X-100

inhibition of Src phosphorylation of Cx43CT [4]: ~ 90% and 90%
inhibition of ERK2 phosphorylation of Cx43CT [5]: ~ 30% and 30%
effect on ERK1 phosphorylation of Cx43CT [6]: not statistically significant
Molecule: calmodulin [CaM]
interaction of CaM with Cx43CT without Ca^2+ [3]: the interaction is lost when Ca^+2 is not present

Molecule: Cx43L1: synthetic peptide, Cx43CL residues M100-A116 (MRKEEKLNKKEEELKVA; UniProt P08050 100-116, looked up, fragment)
CD structure with TFE [7]: at 25% of TFE, the spectrum was still typical of a predominantly random coiled protein

KD compared with control (WT) [8]: little-to-no difference in KD
Molecule: CC[C@H](C)[C@H](NC(=O)CNC(=O)[C@H](Cc1ccc(O)cc1)NC(=O)[C@@H](N)CCCCN)C(=O)N[C@@H](CCC(=O)O)C(=O)N[C@@H](CCC(=O)O)C(=O)N[C@@H](Cc1c[nH]cn1)C(=O)NCC(=O)N[C@@H](CCCCN)C(=O)N[C@H](C(=O)N[C@@H](CCCCN)C(=O)N[C@H](C(=O)N[C@@H](CCCNC(=N)N)C(=O)NCC(=O)NCC(=O)N[C@@H](CC(C)C)C(=O)N[C@@H](CC(C)C)C(=O)N[C@@H](CCCNC(=N)N)C(=O)N[C@H](C(=O)N[C@@H](Cc1ccc(O)cc1)C(=O)N[C@H](C(=O)N[C@H](C(=O)N[C@@H](CO)C(=O)O)[C@@H](C)CC)[C@@H](C)CC)[C@@H](C)O)[C@@H](C)O)C(C)C [M147T]

KD compared with control (WT) [8]: little-to-no difference in KD
Molecule: CC[C@H](C)[C@H](NC(=O)CNC(=O)[C@H](Cc1ccc(O)cc1)NC(=O)[C@@H](N)CCCCN)C(=O)N[C@@H](CCC(=O)O)C(=O)N[C@@H](CCC(=O)O)C(=O)N[C@@H](Cc1c[nH]cn1)C(=O)NCC(=O)N[C@@H](CCCCN)C(=O)N[C@H](C(=O)N[C@@H](CCCCN)C(=O)N[C@@H](CCSC)C(=O)N[C@@H](CCC(N)=O)C(=O)NCC(=O)NCC(=O)N[C@@H](CC(C)C)C(=O)N[C@@H](CC(C)C)C(=O)N[C@@H](CCCNC(=N)N)C(=O)N[C@H](C(=O)N[C@@H](Cc1ccc(O)cc1)C(=O)N[C@H](C(=O)N[C@H](C(=O)N[C@@H](CO)C(=O)O)[C@@H](C)CC)[C@@H](C)CC)[C@@H](C)O)C(C)C [R148Q]

Molecule: Cx43CL100-158: recombinant rat Cx43CL construct, residues M100-S158 (MRKEEKLNKKEEELKVAQTDGVNVEMHLKQIEIKKFKYGIEEHGKVKMRGGLLRTYIIS; cytoplasmic loop; UniProt P08050 100-158, looked up, fragment)
CD structure with TFE [7]: did not elicit the same degree of α-helical content as Cx43CL100-155

Molecule: CCCCCCCCCCCCCC(=O)O[C@@H]1[C@@H](C)[C@@]2(O)[C@@H](C=C(CO)C[C@]3(O)C(=O)C(C)=C[C@@H]23)[C@@H]2C(C)(C)[C@]12OC(C)=O [PMA]
Y265 phosphorylation [9]: increasing Y265 phosphorylation
level of total Cx43 at the plaque [9]: decreased the level of total Cx43 at the plaque

KD compared with control (WT) [8]: little-to-no difference in KD
Molecule: CC[C@H](C)[C@H](NC(=O)CNC(=O)[C@H](Cc1ccc(O)cc1)NC(=O)[C@@H](N)CCCCN)C(=O)N[C@@H](CCC(=O)O)C(=O)N[C@@H](CCC(=O)O)C(=O)N[C@@H](Cc1c[nH]cn1)C(=O)NCC(=O)N[C@@H](CCCCN)C(=O)N[C@H](C(=O)N[C@@H](CCCCN)C(=O)N[C@@H](CCSC)C(=O)N[C@@H](CCCNC(=N)N)C(=O)NCC(=O)NCC(=O)N[C@@H](CC(C)C)C(=O)N[C@@H](CC(C)C)C(=O)N[C@@H](CCCNC(=N)N)C(=O)N[C@@H](C)C(=O)N[C@@H](Cc1ccc(O)cc1)C(=O)N[C@H](C(=O)N[C@H](C(=O)N[C@@H](CO)C(=O)O)[C@@H](C)CC)[C@@H](C)CC)C(C)C [T154A]

Molecule: Cx43CL100-155: recombinant rat full-length Cx43CL domain, residues M100-Y155 (MRKEEKLNKKEEELKVAQTDGVNVEMHLKQIEIKKFKYGIEEHGKVKMRGGLLRTY; cytoplasmic loop; UniProt P08050 100-155, looked up, fragment)
CD structure with TFE [7]: able to form α-helical structure
α-helical content ([7]; 1× PBS, pH 5.8, 7 °C, 200–500 μM, estimated by comparing previous data): less than 5%

Molecule: Cx43L2: synthetic peptide, Cx43CL residues D119-K144
CD structure with TFE [7]: clearly adopted an α-helical structure
secondary structure [10]: two short α-helices
effect on single channel behaviour [11]: interfered with the occurrence of the residual state and prolonged open time
affinity for the CT at pH 5.8 compared with pH 7.4 [12]: greater than at pH 7.4
